Where “and” joins values, the source holds several entries; their conditions need not be identical. Equal entries are not always repeated.
Tested on: Bt474-TxR
Assay: SRB cell viability assay, lapatinib with/without wilforlide A pretreatment
Assay type: cell-based
[1] = Lapatinib 0.067 μM, 72 h, no wilforlide A pretreatment, Table 25
[2] = Lapatinib 0.2 μM, 72 h, pretreated with 25 μg/ml wilforlide A for 2 h, Table 26
[3] = Lapatinib 0.67 μM, 72 h, no wilforlide A pretreatment, Table 27
[4] = Lapatinib 0.67 μM, 72 h, pretreated with 25 μg/ml wilforlide A for 2 h, Table 26
[5] = Lapatinib 2.0 μM, 72 h, no wilforlide A pretreatment, Table 25
[6] = Lapatinib 2.0 μM, 72 h, no wilforlide A pretreatment, Table 27
[7] = Lapatinib 2.0 μM, 72 h, pretreated with 25 μg/ml wilforlide A for 2 h, Table 26
[8] = Lapatinib 6.7 μM, 72 h, no wilforlide A pretreatment, Table 25
[9] = Lapatinib 6.7 μM, 72 h, no wilforlide A pretreatment, Table 27
[10] = Lapatinib 6.7 μM, 72 h, pretreated with 25 μg/ml wilforlide A for 2 h, Table 26
[11] = Lapatinib 20 μM, 72 h, no wilforlide A pretreatment, Table 25
[12] = Lapatinib 20 μM, 72 h, no wilforlide A pretreatment, Table 27
[13] = Lapatinib 20 μM, 72 h, pretreated with 25 μg/ml wilforlide A for 2 h, Table 26

SMILES: CS(=O)(=O)CCNCc1ccc(-c2ccc3ncnc(Nc4ccc(OCc5cccc(F)c5)c(Cl)c4)c3c2)o1 [lapatinib]
- viability at 0.001 µM (72 h, Bt474-TxR, wilforlide A 2.5 μg/ml pre-Tx, lapatinib 0.001 μM 72 h): 100%
- viability at 0.01 µM (72 h, Bt474-TxR, wilforlide A 2.5 μg/ml pre-Tx, lapatinib 0.01 μM 72 h): 103%
- viability at 0.067 µM (72 h, Bt474-TxR, wilforlide A 2.5 μg/ml pre-Tx, lapatinib 0.067 μM 72 h): 96.1%
- viability at 0.2 µM (72 h, Bt474-TxR, wilforlide A 2.5 μg/ml pre-Tx, lapatinib 0.2 μM 72 h): 84.8%
- viability at 0.67 µM (72 h, Bt474-TxR, wilforlide A 2.5 μg/ml pre-Tx, lapatinib 0.67 μM 72 h): 76%
- viability at 2 µM (72 h, Bt474-TxR, wilforlide A 2.5 μg/ml pre-Tx, lapatinib 2.0 μM 72 h): 67.4%
- viability at 6.7 µM (72 h, Bt474-TxR, wilforlide A 2.5 μg/ml pre-Tx, lapatinib 6.7 μM 72 h): 70.2%
- viability at 20 µM (72 h, Bt474-TxR, wilforlide A 2.5 μg/ml pre-Tx, lapatinib 20 μM 72 h): 60.9%
- mean A (Bt474-TxR, wilforlide A 2.5 μg/ml pre-Tx, lapatinib 0.001 μM 72 h): 1.260
- A at 565 nm (Bt474-TxR, wilforlide A 2.5 μg/ml pre-Tx, lapatinib 0.001 μM 72 h, background = 0.045): 1.301 and 1.370
- mean A (Bt474-TxR, wilforlide A 2.5 μg/ml pre-Tx, lapatinib 0.01 μM 72 h): 1.293
- A at 565 nm (Bt474-TxR, wilforlide A 2.5 μg/ml pre-Tx, lapatinib 0.01 μM 72 h, background = 0.045): 1.309 and 1.368
- A at 565 nm (Bt474-TxR, wilforlide A 2.5 μg/ml pre-Tx, lapatinib 0.067 μM 72 h, background = 0.045): 1.297
- mean A (Bt474-TxR, wilforlide A 2.5 μg/ml pre-Tx, lapatinib 0.67 μM 72 h): 0.957
- A at 565 nm (Bt474-TxR, wilforlide A 2.5 μg/ml pre-Tx, lapatinib 0.67 μM 72 h, background = 0.045): 0.898 and 0.975
- mean A (Bt474-TxR, wilforlide A 2.5 μg/ml pre-Tx, lapatinib 2.0 μM 72 h): 0.849
- A at 565 nm (Bt474-TxR, wilforlide A 2.5 μg/ml pre-Tx, lapatinib 2.0 μM 72 h, background = 0.045): 0.895 and 0.791 and 0.861
- mean A (Bt474-TxR, wilforlide A 2.5 μg/ml pre-Tx, lapatinib 6.7 μM 72 h): 0.884
- A at 565 nm (Bt474-TxR, wilforlide A 2.5 μg/ml pre-Tx, lapatinib 6.7 μM 72 h, background = 0.045): 0.947 and 0.814 and 0.893
- mean A (Bt474-TxR, wilforlide A 2.5 μg/ml pre-Tx, lapatinib 20 μM 72 h): 0.768
- A at 565 nm (Bt474-TxR, wilforlide A 2.5 μg/ml pre-Tx, lapatinib 20 μM 72 h, background = 0.045): 0.798 and 0.689 and 0.817
- viability at 0.001 µM (Lapatinib 0.001 μM, 72 h, no wilforlide A pretreatment, Table 25): 100%
- A at 565 nm (Lapatinib 0.001 μM, 72 h, no wilforlide A pretreatment, Table 25, background = 0.045): 1.272 and 1.341
- viability at 0.001 µM (Lapatinib 0.001 μM, 72 h, no wilforlide A pretreatment, Table 27): 100%
- viability at 0.001 µM (Lapatinib 0.001 μM, 72 h, pretreated with 25 μg/ml wilforlide A for 2 h, Table 26): 100%
- mean A (Lapatinib 0.01 μM, 72 h, no wilforlide A pretreatment, Table 25): 1.338
- A at 565 nm (Lapatinib 0.01 μM, 72 h, no wilforlide A pretreatment, Table 25, background = 0.045): 1.352 and 1.344 and 1.318
- viability at 0.01 µM (Lapatinib 0.01 μM, 72 h, no wilforlide A pretreatment, Table 27): 99.5%
- viability at 0.01 µM (Lapatinib 0.01 μM, 72 h, pretreated with 25 μg/ml wilforlide A for 2 h, Table 26): 96.2%
- mean A [1]: 1.304
- viability at 0.067 µM [1]: 105%
- A at 565 nm (Lapatinib 0.067 μM, 72 h, no wilforlide A pretreatment, Table 25, background = 0.045): 1.320 and 1.343
- viability at 0.067 µM (Lapatinib 0.067 μM, 72 h, no wilforlide A pretreatment, Table 27): 98.7%
- viability at 0.067 µM (Lapatinib 0.067 μM, 72 h, pretreated with 25 μg/ml wilforlide A for 2 h, Table 26): 94.6%
- viability at 0.2 µM (Lapatinib 0.2 μM, 72 h, no wilforlide A pretreatment, Table 25): 92.8%
- viability at 0.2 µM (Lapatinib 0.2 μM, 72 h, no wilforlide A pretreatment, Table 27): 94%
- mean A [2]: 0.994
- viability at 0.2 µM [2]: 86.6%
- A at 565 nm (Lapatinib 0.2 μM, 72 h, pretreated with 25 μg/ml wilforlide A for 2 h, Table 26, background = 0.047): 0.963
- viability at 0.67 µM (Lapatinib 0.67 μM, 72 h, no wilforlide A pretreatment, Table 25): 87%
- mean A [3]: 0.994
- viability at 0.67 µM [3]: 85%
- A at 565 nm (Lapatinib 0.67 μM, 72 h, no wilforlide A pretreatment, Table 27, background = 0.047): 0.955
- mean A [4]: 0.872
- viability at 0.67 µM [4]: 76%
- A at 565 nm (Lapatinib 0.67 μM, 72 h, pretreated with 25 μg/ml wilforlide A for 2 h, Table 26, background = 0.047): 0.813 and 0.937 and 0.865
- mean A [5]: 0.987
- viability at 2 µM [5]: 79.1%
- A at 565 nm (Lapatinib 2.0 μM, 72 h, no wilforlide A pretreatment, Table 25, background = 0.045): 0.951
- mean A [6]: 0.831
- viability at 2 µM [6]: 71%
- A at 565 nm (Lapatinib 2.0 μM, 72 h, no wilforlide A pretreatment, Table 27, background = 0.047): 0.887 and 0.809 and 0.797
- mean A [7]: 0.832
- viability at 2 µM [7]: 72.5%
- A at 565 nm (Lapatinib 2.0 μM, 72 h, pretreated with 25 μg/ml wilforlide A for 2 h, Table 26, background = 0.047): 0.876 and 0.831 and 0.789
- mean A [8]: 0.925
- viability at 6.7 µM [8]: 74.2%
- A at 565 nm (Lapatinib 6.7 μM, 72 h, no wilforlide A pretreatment, Table 25, background = 0.045): 0.926 and 0.823
- mean A [9]: 0.795
- viability at 6.7 µM [9]: 68%
- A at 565 nm (Lapatinib 6.7 μM, 72 h, no wilforlide A pretreatment, Table 27, background = 0.047): 0.866 and 0.798 and 0.722
- mean A [10]: 0.729
- viability at 6.7 µM [10]: 63.5%
- A at 565 nm (Lapatinib 6.7 μM, 72 h, pretreated with 25 μg/ml wilforlide A for 2 h, Table 26, background = 0.047): 0.663 and 0.737 and 0.787
- mean A [11]: 0.876
- viability at 20 µM [11]: 70.2%
- A at 565 nm (Lapatinib 20 μM, 72 h, no wilforlide A pretreatment, Table 25, background = 0.045): 0.911 and 0.914 and 0.803
- mean A [12]: 0.746
- viability at 20 µM [12]: 63.8%
- A at 565 nm (Lapatinib 20 μM, 72 h, no wilforlide A pretreatment, Table 27, background = 0.047): 0.807 and 0.697 and 0.735
- mean A [13]: 0.587
- viability at 20 µM [13]: 51.2%
- A at 565 nm (Lapatinib 20 μM, 72 h, pretreated with 25 μg/ml wilforlide A for 2 h, Table 26, background = 0.047): 0.530 and 0.655 and 0.577
